Columns and labels:
IRAK4 [1] = target: IRAK4 (Mus musculus (Mouse), UniProt Q8R4K2); test: In vivo IRAK4 degradation in BALB/c mouse spleen (air pouch study); settings: three PO doses; FIG. 8
Experimental: Dosing of Degrader: Mice were dosed orally at 10 mL/kg with suspensions above, giving 10 mg/kg, 30 mg/kg and 100 mg/kg final dose levels, three times at 8-hour intervals.
Termination, Cell Collection and Data: Four hours after MSU/saline injection, the mice were anesthetized and humanely exsanguinated. The spleens were removed, halved, flash frozen in labeled Eppendorf tubes in liquid nitrogen, and stored at −80° C. for determination of IRAK4 using targeted MS/MS with labeled peptide internal standard. Immediately after the bleed, 3 ml 10 U/mL heparinized saline was injected into the air pouch. The air pouch was gently massaged, the contents immediately removed, and the exudate volume recorded. After allowing the MSU crystals to settle out for fifteen minutes in an ice bath, an aliquot of the exudate was transferred to labeled Eppendorf tubes for differential white blood cell counts, including neutrophils.

AIOLOS = AIOLOS (Homo sapiens (Human), UniProt Q96SW2+Q9UKT9); test: AIOLOS degradation in OCI-LY10 (DC50); type: cell-based
IRAK4 [2] = target: IRAK4 (Homo sapiens (Human), UniProt Q9NWZ3); test: IRAK4 quantification in xenograft tumors by UPLC-MS/MS (tumor PD); type: in vivo, mouse; settings: OCI-LY10 xenograft-bearing mice, oral dosing; FIG. 14
Experimental: At termination: At pre-determined time points based on study design, animals were humanely sacrificed by CO2. Blood was obtained by cardiac puncture for isolation of plasma, any residual tumor was removed and divided in 2 portions, 1 (minimal) for terminal compound exposure and 1 to determine IRAK4 and actin. Compound was determined in tumor and plasma using LC/MS with calibrated standards.
Interleukin-1 receptor-associated kinase 4 (IRAK4) was quantified in human OCI-LY10 and TMD8 xenograft tumors, together with mouse splenocytes and peripheral blood mononuclear cells (PBMCs), by ultra-performance liquid chromatography-tandem mass spectrometry (UPLC-MS/MS). The concentrations of IRAK4 were normalized by the concentrations of actin in the respective samples. […]
Signature peptide concentrations were quantitated using a sensitive and specific targeted LC-MS/MS method. […]
Signature peptide levels (LAVAIK, […]) were quantified by UPLC-MS/MS. […] A SCIEX TripleTOF 6600 LC-MS/MS system was used for the detection and quantitation of analytes. The intensities of the analytes and ISs were determined by integration of extracted ion peak areas using Analyst and MultiQuant 3.0 software. […] Measured peptide levels were corrected for sample work up and converted to actual protein concentrations in ng/mg total protein of cell lysate. […]

IRAK4 (Homo sapiens (Human), UniProt Q9NWZ3), sequence (Q9NWZ3 whole entry): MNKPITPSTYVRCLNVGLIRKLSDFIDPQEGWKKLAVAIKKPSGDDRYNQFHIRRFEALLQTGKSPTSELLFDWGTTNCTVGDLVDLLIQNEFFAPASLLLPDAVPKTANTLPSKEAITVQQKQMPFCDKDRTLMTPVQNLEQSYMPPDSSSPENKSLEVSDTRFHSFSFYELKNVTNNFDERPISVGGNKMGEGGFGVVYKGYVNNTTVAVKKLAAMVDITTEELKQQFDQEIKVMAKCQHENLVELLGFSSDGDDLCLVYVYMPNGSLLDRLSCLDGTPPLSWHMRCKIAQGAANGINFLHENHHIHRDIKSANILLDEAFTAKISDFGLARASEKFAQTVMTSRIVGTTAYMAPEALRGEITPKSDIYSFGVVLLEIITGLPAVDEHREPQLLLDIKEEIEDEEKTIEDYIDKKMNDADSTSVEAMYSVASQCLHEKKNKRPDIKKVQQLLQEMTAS
AIOLOS, sequence (Q9UKT9 whole entry): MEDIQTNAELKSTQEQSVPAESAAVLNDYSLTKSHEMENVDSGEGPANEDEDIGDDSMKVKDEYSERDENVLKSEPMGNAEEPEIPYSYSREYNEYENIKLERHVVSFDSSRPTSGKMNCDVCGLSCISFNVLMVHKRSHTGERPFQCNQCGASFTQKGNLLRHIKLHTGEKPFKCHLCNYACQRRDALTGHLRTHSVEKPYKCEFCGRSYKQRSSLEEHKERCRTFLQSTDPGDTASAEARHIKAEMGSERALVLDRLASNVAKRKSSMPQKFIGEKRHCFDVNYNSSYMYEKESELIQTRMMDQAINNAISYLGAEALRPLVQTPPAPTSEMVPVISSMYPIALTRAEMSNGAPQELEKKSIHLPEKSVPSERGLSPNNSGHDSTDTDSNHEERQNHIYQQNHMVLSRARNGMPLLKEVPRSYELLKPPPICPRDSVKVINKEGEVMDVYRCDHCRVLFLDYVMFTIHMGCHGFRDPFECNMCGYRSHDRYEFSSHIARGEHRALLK
AIOLOS, sequence (Q96SW2 whole entry): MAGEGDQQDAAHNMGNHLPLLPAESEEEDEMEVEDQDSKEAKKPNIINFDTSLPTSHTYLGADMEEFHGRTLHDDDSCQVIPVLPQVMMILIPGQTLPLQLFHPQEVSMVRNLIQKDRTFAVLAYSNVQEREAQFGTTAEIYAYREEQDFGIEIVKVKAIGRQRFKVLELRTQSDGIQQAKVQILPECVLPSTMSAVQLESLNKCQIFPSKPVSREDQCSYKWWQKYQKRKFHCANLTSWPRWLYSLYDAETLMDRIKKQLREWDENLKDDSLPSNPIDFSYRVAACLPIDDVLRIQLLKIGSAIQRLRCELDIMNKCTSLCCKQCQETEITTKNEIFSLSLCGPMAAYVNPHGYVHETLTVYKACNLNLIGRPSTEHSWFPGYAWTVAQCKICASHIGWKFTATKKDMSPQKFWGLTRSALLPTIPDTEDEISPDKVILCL
AIOLOS, sequence (Q16531 whole entry partner): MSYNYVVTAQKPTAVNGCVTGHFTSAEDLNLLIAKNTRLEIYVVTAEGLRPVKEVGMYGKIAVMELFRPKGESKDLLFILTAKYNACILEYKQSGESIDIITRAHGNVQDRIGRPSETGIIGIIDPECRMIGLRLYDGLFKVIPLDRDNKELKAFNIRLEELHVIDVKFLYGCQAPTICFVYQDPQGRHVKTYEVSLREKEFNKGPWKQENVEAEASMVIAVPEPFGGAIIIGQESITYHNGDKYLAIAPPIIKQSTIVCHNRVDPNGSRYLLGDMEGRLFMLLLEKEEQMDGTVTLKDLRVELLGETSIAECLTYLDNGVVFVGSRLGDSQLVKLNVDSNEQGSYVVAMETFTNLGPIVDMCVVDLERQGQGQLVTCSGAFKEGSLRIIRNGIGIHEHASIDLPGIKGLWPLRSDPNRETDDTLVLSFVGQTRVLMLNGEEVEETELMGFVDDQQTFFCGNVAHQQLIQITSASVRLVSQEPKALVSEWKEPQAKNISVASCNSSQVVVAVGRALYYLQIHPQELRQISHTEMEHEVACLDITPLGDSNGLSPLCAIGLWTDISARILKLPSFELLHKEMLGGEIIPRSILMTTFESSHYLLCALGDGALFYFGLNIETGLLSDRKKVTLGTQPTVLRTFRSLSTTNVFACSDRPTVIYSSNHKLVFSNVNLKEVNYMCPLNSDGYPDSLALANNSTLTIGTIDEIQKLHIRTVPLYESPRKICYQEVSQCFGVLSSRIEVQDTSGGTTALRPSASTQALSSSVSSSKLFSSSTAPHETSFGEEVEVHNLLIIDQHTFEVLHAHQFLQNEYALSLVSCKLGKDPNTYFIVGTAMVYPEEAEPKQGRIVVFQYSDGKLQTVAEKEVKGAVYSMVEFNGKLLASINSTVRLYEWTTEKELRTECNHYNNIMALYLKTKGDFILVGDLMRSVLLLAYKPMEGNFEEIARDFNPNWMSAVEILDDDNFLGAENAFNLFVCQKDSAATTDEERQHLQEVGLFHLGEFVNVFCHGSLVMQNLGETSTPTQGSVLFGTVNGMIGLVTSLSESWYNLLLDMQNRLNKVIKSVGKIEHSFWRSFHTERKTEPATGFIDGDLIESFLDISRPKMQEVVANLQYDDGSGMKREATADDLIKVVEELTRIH
IRAK4 (Mus musculus (Mouse), UniProt Q8R4K2), sequence (Q8R4K2 whole entry): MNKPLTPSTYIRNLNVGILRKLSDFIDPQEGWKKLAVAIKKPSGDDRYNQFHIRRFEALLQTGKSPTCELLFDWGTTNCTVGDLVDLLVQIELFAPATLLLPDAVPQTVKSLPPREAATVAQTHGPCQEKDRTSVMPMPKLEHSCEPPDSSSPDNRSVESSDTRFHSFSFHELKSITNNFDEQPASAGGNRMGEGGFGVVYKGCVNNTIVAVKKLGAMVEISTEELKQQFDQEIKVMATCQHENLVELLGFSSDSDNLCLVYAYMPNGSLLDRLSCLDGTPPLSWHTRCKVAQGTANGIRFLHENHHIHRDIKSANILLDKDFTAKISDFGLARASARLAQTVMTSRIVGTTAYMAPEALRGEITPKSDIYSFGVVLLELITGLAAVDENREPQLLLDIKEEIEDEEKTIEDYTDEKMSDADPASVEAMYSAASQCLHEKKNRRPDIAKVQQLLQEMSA

Row | Structure (SMILES) | IRAK4 in BALB/c mouse spleen (IRAK4 [1]) | DC50 (AIOLOS) [nM] | degradation of IRAK4 correlating with tumor regression (IRAK4 [2]) [%]
1 | CN(CCCOCCCc1cccc2c1n(C)c(=O)n2C1CCC(=O)NC1=O)C[C@H]1CC[C@H](n2cc(NC(=O)c3coc(-c4ccnc(NCC5CC5)c4)n3)c(C(F)F)n2)CC1 (mixture of isomers) [I-30, 2-[2-(Cyclopropylmethylamino)-4-pyridyl]-N-[3-(difluoromethyl)-1-[4-[[3-[3-[1-(2,6-dioxo-3-piperidyl)-3-methyl-2-oxo-benzimidazol-4-yl]propoxy]propyl-methyl-amino]methyl]cyclohexyl]pyrazol-4-yl] oxazole-4-carboxamide] | in vivo degradation of IRAK4 | – | –
2 | CN(C[C@H]1CC[C@H](n2cc(NC(=O)c3coc(-c4ccnc(NCC5CC5)c4)n3)c(C(F)F)n2)CC1)C1CCN(Cc2cccc3c2n(C)c(=O)n3C2CCC(=O)NC2=O)CC1 (stereo partly drawn) [I-75, 2-(2-((cyclopropylmethyl)amino)pyridin-4-yl)-N-(3-(difluoromethyl)-1-((1r,4r)-4-(((1-((1-(2,6-dioxopiperidin-3-yl)-3-methyl-2-oxo-2,3-dihydro-1H-benzo[d]imidazol-4-yl)methyl)piperidin-4-yl)(methyl)amino)methyl)cyclohexyl)-1H-pyrazol-4-yl)oxazole-4-carboxamide] | – | > 100 | > 75

From patent publication US11352350B2, “IRAK degraders and uses thereof” (Kymera Therapeutics, Inc., priority 2018, dated 2022)
